Data: US8173657B2, “Imidazoquinoxaline compounds as immunomodulators” (Novartis AG, priority 2006, dated 2012)

Legend:
Assay type in all cases: cell-based
TNF-α = assay: Compound stimulation and multi-cytokine measurement (TNF-α production); conditions: cytokine induction; FIG. 2: human PBMC TNF-α production; read-out: EC50 value with respect to agonism of TNF-α
Description: Human blood from one or multiple human donors were collected into the BD Vacutainer™ CPT tube with sodium citrate (BD, Franklin Lakes, N.J.), and spun for 20 minutes at 1600 g. After centrifugation, mononuclear cells in the top layer in the tubes were collected and then washed three times with PBS buffer. The washed cells were then reconstituted at a required cell concentration in complete RPMI containing 10% FBS plus 100 units/ml penicillin and 100 ug/ml streptomycin.
Human PBMC (hPBMC) (at 1 million cells/ml) or mouse spleen cells (at 5 million cells/ml) or human monocytic THP-1 cells (at 1 million cells/ml) were mixed with tested compounds such as imidazoquinoxalines at titrated compound concentrations in the complete RPMI medium. After the cell cultures were incubated for 24 hours at 37° C., 5% CO2, the culture supernatant was collected and assayed for the secreted cytokines in the presence of the compounds. […]
Due to the agonist nature of the compounds tested, compound ranking is based on potency in cell-based screens for cytokine induction. Briefly, the EC50 of each compound for a given cytokine is calculated relative to a reference composition (i.e. LPS or other potent immune stimulator). […] Rank-scoring of SMIP potency is calculated by dividing the maximum concentration of cytokine produced by the relative EC50 established for each compound indicated.

IL-6 = assay: Compound stimulation and multi-cytokine measurement (IL-6 production); conditions: cytokine induction; cell type not stated at the result; read-out: EC50 value with respect to agonism of IL-6
Description: Human PBMC (hPBMC) (at 1 million cells/ml) or mouse spleen cells (at 5 million cells/ml) or human monocytic THP-1 cells (at 1 million cells/ml) were mixed with tested compounds such as imidazoquinoxalines at titrated compound concentrations in the complete RPMI medium. After the cell cultures were incubated for 24 hours at 37° C., 5% CO2, the culture supernatant was collected and assayed for the secreted cytokines in the presence of the compounds. Human or mouse Beadlyte multi-cytokine flex kits (Upstate, Lake Placid, N.Y.) were used to measure the amount of the following cytokines: TNF-α and IL-6 according to the manufacturers instructions.
Due to the agonist nature of the compounds tested, compound ranking is based on potency in cell-based screens for cytokine induction. Briefly, the EC50 of each compound for a given cytokine is calculated relative to a reference composition (i.e. LPS or other potent immune stimulator). This value is then used as the divisor of the maximum level of cytokine produced (pg/ml) in the assay. Five parameter curve fitting of cytokine dose response curves to different SMIPs for the indicated cell populations is used to calculate EC50. Rank-scoring of SMIP potency is calculated by dividing the maximum concentration of cytokine produced by the relative EC50 established for each compound indicated.

human TLR7 = target: T1, human TLR7 (Homo sapiens, UniProt Q9NYK1); assay: TLR signaling, NF-kB luciferase reporter in transfected HEK293 cells; conditions: HEK293 transfected with hTLR7, NF-kB luciferase; FIG. 1
T1 construct: host or cells: HEK293 cells (ATCC, CRL-1573)
T1 sequence (Q9NYK1 27-1049): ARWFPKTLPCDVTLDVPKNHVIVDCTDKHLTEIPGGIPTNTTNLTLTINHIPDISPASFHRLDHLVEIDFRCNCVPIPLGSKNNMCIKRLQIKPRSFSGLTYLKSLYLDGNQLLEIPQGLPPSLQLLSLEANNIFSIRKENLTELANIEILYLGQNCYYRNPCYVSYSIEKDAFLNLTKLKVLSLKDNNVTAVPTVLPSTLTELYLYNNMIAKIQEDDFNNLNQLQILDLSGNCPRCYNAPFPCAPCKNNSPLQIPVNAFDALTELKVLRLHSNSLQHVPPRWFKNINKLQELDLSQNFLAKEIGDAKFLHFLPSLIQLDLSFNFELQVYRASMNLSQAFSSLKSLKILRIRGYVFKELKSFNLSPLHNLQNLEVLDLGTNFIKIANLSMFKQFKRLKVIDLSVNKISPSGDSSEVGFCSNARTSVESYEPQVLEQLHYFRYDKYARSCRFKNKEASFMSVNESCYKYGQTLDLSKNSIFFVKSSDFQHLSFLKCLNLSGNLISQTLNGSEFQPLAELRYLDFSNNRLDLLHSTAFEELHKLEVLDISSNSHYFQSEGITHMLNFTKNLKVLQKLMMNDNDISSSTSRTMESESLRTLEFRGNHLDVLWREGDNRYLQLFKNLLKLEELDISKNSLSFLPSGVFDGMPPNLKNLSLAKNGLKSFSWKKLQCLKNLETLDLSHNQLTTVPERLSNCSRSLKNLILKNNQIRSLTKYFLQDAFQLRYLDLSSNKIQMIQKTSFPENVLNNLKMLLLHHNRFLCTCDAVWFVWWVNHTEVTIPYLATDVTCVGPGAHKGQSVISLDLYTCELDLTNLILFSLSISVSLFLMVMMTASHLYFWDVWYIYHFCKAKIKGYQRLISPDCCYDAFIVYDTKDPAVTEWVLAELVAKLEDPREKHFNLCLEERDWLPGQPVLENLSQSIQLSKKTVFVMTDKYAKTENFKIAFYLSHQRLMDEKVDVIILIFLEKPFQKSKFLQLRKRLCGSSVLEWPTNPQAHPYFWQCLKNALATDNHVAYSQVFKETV
Description: (§1) HEK293 cells (ATCC, CRL-1573) are seeded in a T75 flask at 3×10^6 in 20 ml of DMEM supplemented with 0.1 mM nonessential amino acid, 1 mM sodium pyruvate, 2 mM L-glutamine, penicillin-streptomycin, and 10% FCS. After overnight culturing, the cells are transfected with 1) pNFkB-TA-luciferase reporter (0.4 ug) (BD clontech, Palo Alto, Calif.), and with 2) with pGL4.74 (0.01 ug) that carries a TK promoter, not responsive to NF-kB stimulation, and carries a Renilla luciferase gene, used as an internal control (Promega, Wis.), and 3), separately with a following TLR construct (10 ug): human TLR (hTLR) 7, hTLR8, mouse TLR7 (mTLR7) puno constructs (Invivogene, CA), using Fugene 6 transfection reagent (Roche). The transfected cells after 24 hours transfection are collected and seeded in a 96-well and flat-bottom plate (1×10^4 cell/well) plate, and stimulated with the test compounds at the following concentrations: 30, 10, 3, 1, 0.3, 0.1, 0.03 uM. After overnight compound stimulation, the cells are assayed for expression of fly and renilla luciferases using Dual-Luciferase Reporter Assay System (Promega, WI). NF-kb activation is directly proportional to relative fly luciferase units, which is measured against the internal control renilla luciferase units.

human TLR8 = target: T2, human TLR8 (Homo sapiens, UniProt Q9NR97); assay: as above; conditions: HEK293 transfected with hTLR8, NF-kB luciferase; FIG. 1
T2 construct: host or cells: HEK293 cells (ATCC, CRL-1573)
T2 sequence (Q9NR97 27-1041): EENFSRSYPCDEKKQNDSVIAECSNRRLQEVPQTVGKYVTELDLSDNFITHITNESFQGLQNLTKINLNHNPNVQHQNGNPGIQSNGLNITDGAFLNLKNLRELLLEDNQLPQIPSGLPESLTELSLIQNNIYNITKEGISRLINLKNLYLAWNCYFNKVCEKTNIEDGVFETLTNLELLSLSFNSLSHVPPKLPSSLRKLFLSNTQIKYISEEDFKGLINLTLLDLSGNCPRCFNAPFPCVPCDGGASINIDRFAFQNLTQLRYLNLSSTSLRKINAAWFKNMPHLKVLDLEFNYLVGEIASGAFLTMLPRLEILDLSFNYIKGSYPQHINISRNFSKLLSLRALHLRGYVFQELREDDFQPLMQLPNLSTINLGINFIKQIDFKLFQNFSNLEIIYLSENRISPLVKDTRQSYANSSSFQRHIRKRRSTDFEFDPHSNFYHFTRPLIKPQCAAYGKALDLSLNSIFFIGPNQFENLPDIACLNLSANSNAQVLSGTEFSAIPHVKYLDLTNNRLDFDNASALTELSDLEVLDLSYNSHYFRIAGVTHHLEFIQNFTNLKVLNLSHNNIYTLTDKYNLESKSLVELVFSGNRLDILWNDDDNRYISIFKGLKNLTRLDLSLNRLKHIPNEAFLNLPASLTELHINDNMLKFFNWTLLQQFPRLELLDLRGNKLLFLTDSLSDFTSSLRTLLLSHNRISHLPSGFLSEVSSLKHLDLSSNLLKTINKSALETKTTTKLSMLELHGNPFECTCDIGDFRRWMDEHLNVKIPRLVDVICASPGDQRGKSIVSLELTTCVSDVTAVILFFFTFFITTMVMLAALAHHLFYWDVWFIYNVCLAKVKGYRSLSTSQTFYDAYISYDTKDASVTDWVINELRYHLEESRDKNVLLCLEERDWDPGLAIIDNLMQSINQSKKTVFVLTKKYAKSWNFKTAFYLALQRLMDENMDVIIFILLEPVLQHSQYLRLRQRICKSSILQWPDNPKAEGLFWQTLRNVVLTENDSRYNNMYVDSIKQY
Description: as §1

mouse TLR7 = target: T3, mouse TLR7 (Mus musculus, UniProt P58681); assay: as above; conditions: HEK293 transfected with mTLR7, NF-kB luciferase; FIG. 1
T3 construct: host or cells: HEK293 cells (ATCC, CRL-1573)
T3 sequence (P58681 27-1050): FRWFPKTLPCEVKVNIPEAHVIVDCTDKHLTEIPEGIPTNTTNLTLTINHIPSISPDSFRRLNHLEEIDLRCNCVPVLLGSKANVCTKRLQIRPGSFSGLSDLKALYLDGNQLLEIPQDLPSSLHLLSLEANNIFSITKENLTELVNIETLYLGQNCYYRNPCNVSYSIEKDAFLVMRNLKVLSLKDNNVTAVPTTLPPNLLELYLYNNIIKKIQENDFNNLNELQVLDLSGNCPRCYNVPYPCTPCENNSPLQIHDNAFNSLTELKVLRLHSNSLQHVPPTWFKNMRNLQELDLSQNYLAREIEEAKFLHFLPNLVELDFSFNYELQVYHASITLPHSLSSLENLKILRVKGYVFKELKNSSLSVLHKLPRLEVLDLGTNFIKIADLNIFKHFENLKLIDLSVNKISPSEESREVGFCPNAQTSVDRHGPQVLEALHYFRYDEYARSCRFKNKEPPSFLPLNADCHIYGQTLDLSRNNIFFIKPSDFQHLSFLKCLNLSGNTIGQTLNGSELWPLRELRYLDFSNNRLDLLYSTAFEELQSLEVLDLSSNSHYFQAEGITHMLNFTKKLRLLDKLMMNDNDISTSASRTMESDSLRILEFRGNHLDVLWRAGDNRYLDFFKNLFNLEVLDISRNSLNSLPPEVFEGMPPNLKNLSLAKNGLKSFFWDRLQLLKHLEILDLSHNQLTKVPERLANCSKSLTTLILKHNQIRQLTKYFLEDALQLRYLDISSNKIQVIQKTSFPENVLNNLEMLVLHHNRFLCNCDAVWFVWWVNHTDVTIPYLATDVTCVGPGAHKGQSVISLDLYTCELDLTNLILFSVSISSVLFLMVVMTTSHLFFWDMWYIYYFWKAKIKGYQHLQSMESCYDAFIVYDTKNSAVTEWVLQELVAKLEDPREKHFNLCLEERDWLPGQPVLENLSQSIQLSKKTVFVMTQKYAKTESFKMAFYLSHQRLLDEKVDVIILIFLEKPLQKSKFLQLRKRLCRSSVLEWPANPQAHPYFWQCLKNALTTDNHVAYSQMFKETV
Description: as §1

EC50 (TNF-α) [µM]	EC50 (IL-6) [µM]	stimulation of human TLR7 (human TLR7)	stimulatory activity with human TLR8 (human TLR8)	SMILES	reactivity for mouse TLR7 (mouse TLR7)
< 15	< 15	activity for stimulation	stimulatory activity	CC(C)Cc1cn2c(n1)c(N)nc1ccccc12 [Example 3, 2-isobutylimidazo[1,2-a]quinoxalin-4-amine]	slightly more reactivity for mouse TLR7 than did the compound of Example 4
< 15	< 15		little or no reactivity	CC(C)Cc1nc2c(N)nc3ccccc3n2c1CC(C)(C)O [Example 4, 1-(4-amino-2-isobutylimidazo[1,2-a]quinoxalin-1-yl)-2-methylpropan-2-ol]	
